Where two headings read alike, the source gives them in different places.
What was measured:
[1] = test system: 60 human tumor cell lines; experiment: cells
[2] = test system: HL-60(TB); experiment: NCI-60 SRB screen: leukemia HL-60(TB); type: cell-based; settings: Homo sapiens, 48 h; HL-60(TB); single dose 10 µM; read-out: Percentage Cell Growth
[3] = test system: HT29; experiment: NCI-60 SRB screen: colon cancer HT29; type: cell-based; settings: Homo sapiens, HT-29, 48 h; HT29; single dose 10 µM; read-out: Percentage Cell Growth
[4] = test system: MDA-MB-231/ATCC; experiment: NCI-60 SRB screen: breast cancer MDA-MB-231/ATCC; type: cell-based; settings: Homo sapiens, 48 h; MDA-MB-231/ATCC; single dose 10 µM; read-out: Percentage Cell Growth
[5] = test system: OVCAR-8; experiment: NCI-60 SRB screen: ovarian cancer OVCAR-8; type: cell-based, human; settings: OVCAR-8; single dose 10 µM
[6] = test system: HCT-116; experiment: NCI-60 SRB screen: colon cancer HCT-116; type: cell-based; settings: Homo sapiens, 48 h; HCT-116; single dose 10 µM; read-out: Percentage Cell Growth
[7] = test system: MOLT-4; experiment: NCI-60 SRB screen: leukemia MOLT-4; type: cell-based; settings: Homo sapiens, 48 h; MOLT-4; single dose 10 µM; read-out: Percentage Cell Growth
[8] = test system: KM12; experiment: NCI-60 SRB screen: colon cancer KM12; type: cell-based, human; settings: KM12; single dose 10 µM
[9] = test system: LOX IMVI; experiment: NCI-60 SRB screen: melanoma LOX IMVI; type: cell-based, human; settings: single dose 10 µM
[10] = test system: SW-620; experiment: NCI-60 SRB screen: colon cancer SW-620; type: cell-based; settings: Homo sapiens, 48 h; SW-620; single dose 10 µM; read-out: Percentage Cell Growth
[11] = test system: K-562; experiment: NCI-60 SRB screen: leukemia K-562; type: cell-based, human; settings: K-562; single dose 10 µM
[12] = test system: CCRF-CEM; experiment: NCI-60 SRB screen: leukemia CCRF-CEM; type: cell-based; settings: Homo sapiens, 48 h, single dose 10 µM, read-out: Percentage Cell Growth
[13] = test system: IGROV1; experiment: NCI-60 SRB screen: ovarian cancer IGROV1; type: cell-based, human; settings: IGROV1; single dose 10 µM
[14] = test system: U251; experiment: NCI-60 SRB screen: CNS cancer U251; type: cell-based; settings: Homo sapiens, U-251, 48 h; U251; single dose 10 µM; read-out: Percentage Cell Growth
[15] = test system: COLO 205; experiment: NCI-60 SRB screen: colon cancer COLO 205; type: cell-based, human; settings: COLO 205; single dose 10 µM
[16] = test system: MCF7; experiment: NCI-60 SRB screen: breast cancer MCF7; type: cell-based; settings: Homo sapiens, 48 h; MCF7; single dose 10 µM; read-out: Percentage Cell Growth
[17] = test system: RPMI-8226; experiment: NCI-60 SRB screen: leukemia RPMI-8226; type: cell-based; settings: Homo sapiens, 48 h; RPMI-8226; single dose 10 µM; read-out: Percentage Cell Growth
[18] = test system: SR; experiment: NCI-60 SRB screen: leukemia SR; type: cell-based; settings: Homo sapiens, 48 h, single dose 10 µM, read-out: Percentage Cell Growth
[19] = test system: NCI-H460; experiment: NCI-60 SRB screen: non-small cell lung cancer NCI-H460; type: cell-based; settings: Homo sapiens, 48 h; NCI-H460; single dose 10 µM; read-out: Percentage Cell Growth

`C=C(C)[C@@H]1CC[C@]2(C(N)=O)CC[C@]3(C)[C@H](CC[C@@H]4[C@@]5(C)CCC(=O)C(C)(C)[C@@H]5CC[C@]43C)[C@@H]12` [Compound 9] showed an activity at 10 µM ([1]; read-out: Mean Growth, %) of 72%, an activity at 10 µM ([1]; read-out: Range of Growth, %) of 25.9 to 115% and an activity at 10 µM [2] of 25.9%.

Compound `C=C(C)[C@@H]1CC[C@]2(C(=O)NCCNCCN)CC[C@]3(C)[C@H](CC[C@@H]4[C@@]5(C)CC[C@H](O)C(C)(C)[C@@H]5CC[C@]43C)[C@@H]12` [Compound 7] has an activity at 10 µM ([1]; read-out: Mean Growth, %) of 99.2% and an activity at 10 µM ([1]; read-out: Range of Growth, %) of 53.8 to 147%.

With `C=C(C)[C@@H]1CC[C@]2(C(=O)NCCCC[C@@H](N)C(=O)OC)CC[C@]3(C)[C@H](CC[C@@H]4[C@@]5(C)CCC(=O)C(C)(C)[C@@H]5CC[C@]43C)[C@@H]12` [Compound 17] the activity at 10 µM ([1]; read-out: Mean Growth, %) was 98.7% and the activity at 10 µM ([1]; read-out: Range of Growth, %) was 79.2 to 111%.

`C=C(C)[C@@H]1CC[C@]2(C(=O)NCCCCCCN(CCCN)CCCN)CC[C@]3(C)[C@H](CC[C@@H]4[C@@]5(C)CC[C@H](O)C(C)(C)[C@@H]5CC[C@]43C)[C@@H]12` [Compound 8] was tested, and the activity at 10 µM [3] was 24.3%, the activity at 10 µM ([1]; read-out: Mean Growth, %) was 80.5% and the activity at 10 µM ([1]; read-out: Range of Growth, %) was 20.4 to 135%. For the same compound, the activity at 10 µM [4] was 20.4%.

With `C=C(C)[C@@H]1CC[C@]2(C(=O)NN(CCN(CCNC(=O)OC(C)(C)C)C(=O)OC(C)(C)C)C(=O)OC(C)(C)C)CC[C@]3(C)[C@H](CC[C@@H]4[C@@]5(C)CCC(=O)C(C)(C)[C@@H]5CC[C@]43C)[C@@H]12` [Compound 15] the activity at 10 µM ([1]; read-out: Mean Growth, %) was 90.1% and the activity at 10 µM ([1]; read-out: Range of Growth, %) was 56.8 to 114%.

With `C=C(C)[C@@H]1CC[C@]2(C(=O)NCCCCCCN(CCCN)CCCN)CC[C@]3(C)[C@H](CC[C@@H]4[C@@]5(C)CC[C@H](OCCCN)C(C)(C)[C@@H]5CC[C@]43C)[C@@H]12` [Compound 19] the “Percentage Cell Growth” value [5] was −28.27%, the activity at 10 µM [6] was 12.6% and the activity at 10 µM [7] was 10.1%. The “Percentage Cell Growth” value [8] was 31.48%, the activity at 10 µM [3] was 4.21% and the “Percentage Cell Growth” value [9] was 5.71%. The activity at 10 µM [10] was 7.33%, the activity at 10 µM ([1]; read-out: Mean Growth, %) was 63% and the activity at 10 µM ([1]; read-out: Range of Growth, %) was -39.5 to 141%. For the same compound, the “Percentage Cell Growth” value [11] was 1.52%, the activity at 10 µM [12] was 11.8% and the “Percentage Cell Growth” value [13] was 27.33%. The activity at 10 µM [14] was -39.5%, the “Percentage Cell Growth” value [15] was 18.88% and the activity at 10 µM [16] was 14.5%. The activity at 10 µM [17] was 29.3%, the activity at 10 µM [18] was 18.4% and the activity at 10 µM [19] was -16.2%.
